# Values of other authors, collected in US10646430B2, “Topical compositions for stimulating adipogenesis and lipogenesis to reduce the signs of skin aging” (Kimberly-Clark Worldwide, Inc., priority 2014, dated 2020).
# System: 3T3-L1 cells
# Settings: Kim et al., Nutr. Res. 32(6): 439-447
substance,measurement,value
Fucoidan,adipogenesis (literature),inhibit adipogenesis
